Experiments:
Type in all cases: physicochemical
[1] = Irradiation (24 h UV test, Ultra-Vitalux W300) of oil phase solutions, chromametric b* values; conditions: for b* value: after irradiation
Experimental: In order to examine to what extent the stability of the compound of the formula (IA) can be increased by predissolution in an oil phase to which an oil-soluble photoprotective filter of the formula (II) is added, irradiation experiments were conducted. The oil phase used was 2-ethylhexyl isononanoate (INCI: Ethylhexyl isononanoate). The amount of 4-(1-phenylethyl)-1,3-dihydroxybenzene (formula (IA) was in this case in a range from 10% to 20% by weight, based on the amount of oil phase. The amount of the photoprotective filter added for colour stabilization, 2-hydroxy-4-methoxybenzophenone (INCI: Benzophenone-3, formula (IIC)), was in each case 1% by weight. In order to examine to what extent the addition of a photoprotective filter of the formula (II) is advantageous, all of the samples were irradiated for 24 hours with light (light source: Ultra-Vitalux W300). For the measurement of any colour changes that occurred, all of the samples were subjected to chromametry both before and after irradiation to determine the b* values, which represent a measure of the shift in the blue-yellow axis and so give a direct indication of a yellow discoloration occurring.

[2] = pH series: aqueous-ethanolic solutions stored in the dark for 28 days, chromametric b* values; conditions: after 28 days, without disodium EDTA
Experimental: In order to examine to what extent the degradation and the associated yellow to brown discoloration of 4-(1-phenylethyl)-1,3-dihydroxybenzene (CARN: 85-27-8; formula (IA)) in cosmetic and pharmaceutical formulations is also influenced by the pH value of the preparation, serial pH experiments were conducted, by dissolving 4-(1-phenylethyl)-1,3-dihydroxybenzene (CARN: 85-27-8; formula (IA)) in aqueous/ethanolic solutions which had been adjusted to different pH values (pH 4, 5, 7 and 9, Table 2) using buffer solutions. The amount of 4-(1-phenylethyl)-1,3-dihydroxybenzene (CARN: 85-27-8; formula (IA)) was in each case 0.5 percent by weight. All of the samples were stored in the dark for 28 days at room temperature. In order to measure any colour changes occurring, all samples were subjected to chromametric determination, both at the beginning of the experiment and at the end of a storage time of 28 days, of the b* values, which represent a measure of the shift in the blue-yellow axis and therefore give a direct indication of any yellow discoloration occurring.

[3] = pH series with disodium EDTA: aqueous-ethanolic solutions stored in the dark for 28 days, chromametric b* values; conditions: after 28 days
From the text: The amount of 4-(1-phenylethyl)-1,3-dihydroxybenzene (CARN: 85-27-8; formula (IA)) was again in each case 0.5 percent by weight. The samples were likewise stored in the dark at room temperature for 28 days.

CC(c1ccccc1)c1ccc(O)cc1O (stereo not shown) [4-(1-phenylethyl)-1,3-dihydroxybenzene]
b* value ([1]; reference specimen not stabilized with benzophenone-3): 34.0
b* value ([1]; solution with 10 percent by weight, plus 1 percent benzophenone-3): 10.3
b* value ([1]; solution with 15 percent by weight, plus 1 percent benzophenone-3): 15.5
b* value ([1]; solution with 20 percent by weight, plus 1 percent benzophenone-3): 10.6
stability of solutions on irradiation with light ([1]; light source Ultra-Vitalux W300, yellowish to brownish discoloration): a certain instability
b* value ([2]; pH 4, 0.5% solution): 2.0
b* value ([2]; pH 5, 0.5% solution): 4.6
b* value ([2]; pH 7, 0.5% solution): 19.4
b* value ([2]; pH 9, 0.5% solution): 55.3
b* value ([3]; pH 4, 0.5% solution): 1.5
b* value ([3]; pH 5, 0.5% solution): 3.6
b* value ([3]; pH 7, 0.5% solution): 14.8
b* value ([3]; pH 9, 0.5% solution): 40.2
